# Results as given in patent publication US20100267561A1, “HERBICIDAL PYRIDAZINONE DERIVATIVES” (priority 2007, published 2010).
# Assays:
# Assay in all cases: Test B pre-/postemergence plant response
# Type in all cases: in vivo
# [1] = test system: downy bromegrass (Bromus tectorum); conditions: for Bromegrass, Downy plant response rating: 8 g ai/ha
# Summary of the method: (§1)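 Seeds were sown and sprayed preemergence, while plants at 2 to 18 cm (1- to 4-leaf stage) got postemergence sprays. Compounds were formulated in a non-phytotoxic solvent mixture with surfactant. After 13 to 15 days in a greenhouse, injury was rated visually against untreated controls, 0 (no effect) to 100 (complete control).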
# [2] = test system: soybean (Glycine max); conditions: for Soybean plant response rating: postemergence, 0-100 scale; for Plant response rating, Soybean: Postemergence
# Summary of the method: as §1
# [3] = test system: Russian thistle (Salsola iberica); conditions: Preemergence; for Russian Thistle plant response rating: scale 0 to 100
# Summary of the method: as §1
# [4] = test system: pigweed (Amaranthus retroflexus)
# Summary of the method: as §1
# [5] = test system: kochia (Kochia scoparia); conditions: for Kochia plant response rating: postemergence, 0-100 scale; for Plant response rating, Kochia: Postemergence
# Summary of the method: as §1
# [6] = test system: goosegrass (Eleusine indica)
# Summary of the method: as §1
# [7] = test system: catchweed bedstraw (Galium aparine); conditions: Preemergence; for Galium plant response rating: scale 0 to 100
# Summary of the method: as §1
# [8] = test system: common (oilseed) sunflower (Helianthus annuus); conditions: Preemergence; for Sunflower plant response rating: scale 0 to 100
# Summary of the method: as §1
# [9] = test system: Italian ryegrass (Lolium multiflorum)
# Summary of the method: as §1
# [10] = test system: woolly cupgrass (Eriochloa villosa)
# Summary of the method: as §1
# [11] = test system: large crabgrass (Digitaria sanguinalis)
# Summary of the method: as §1
# [12] = test system: common ragweed (Ambrosia elation)
# Summary of the method: as §1
# [13] = test system: surinam grass (Brachiaria decumbens)
# Summary of the method: as §1
# [14] = test system: cocklebur (Xanthium strumarium); conditions: for Cocklebur plant response rating: 8 g ai/ha
# Summary of the method: as §1
# [15] = Postemergence, 16 g ai/ha, scale 0 to 100
# [16] = Postemergence, 31 g ai/ha, scale 0 to 100
# [17] = Postemergence, 62 g ai/ha, scale 0 to 100, 0 no effect, 100 complete control
# [18] = Preemergence, 16 g ai/ha, scale 0 to 100 (0 no effect, 100 complete control)
# [19] = Preemergence, 31 g ai/ha, scale 0 to 100 (0 no effect, 100 complete control)
# [20] = Preemergence, 62 g ai/ha, 0 to 100 scale, 0 no effect, 100 complete control
# [21] = 62 g ai/ha, scale 0 to 100, 0 no effect, 100 complete control
# [22] = 31 g ai/ha, scale 0 to 100 (0 no effect, 100 complete control)
# [23] = 62 g ai/ha, 0 to 100 scale, 0 no effect, 100 complete control
# [24] = 8 g ai/ha, postemergence, 0-100 scale
# [25] = 16 g ai/ha, postemergence, 0-100 scale
# [26] = Preemergence, 8 g ai/ha, scale 0 to 100
# [27] = Preemergence, 16 g ai/ha, scale 0 to 100
compound,measurement,setting,value
CCc1cc(-c2ccc(C(F)(F)F)cc2)nn1-c1c(O)cnn(CC)c1=O [Compound 67],"Bromegrass, Downy plant response rating","[1]; postemergence, 0-100 scale",55
same,"Plant response rating, Bromegrass, Downy",[1]; [15],80
same,"Plant response rating, Bromegrass, Downy",[1]; [16],80
same,"Plant response rating, Bromegrass, Downy",[1]; [17],100
same,"Plant response rating, Bromegrass, Downy",[1]; [18],90
same,"Plant response rating, Bromegrass, Downy",[1]; [19],100
same,"Plant response rating, Bromegrass, Downy",[1]; [20],100
same,"Bromegrass, Downy plant response rating","[1]; Preemergence, scale 0 to 100",50
same,Soybean plant response rating,[2]; 8 g ai/ha,0
same,Soybean plant response rating,[2]; 16 g ai/ha,0
same,"Plant response rating, Soybean","[2]; 31 g ai/ha, scale 0 to 100",0
same,"Plant response rating, Soybean",[2]; [21],15
same,"Plant response rating, Russian Thistle",[3]; [22],0
same,"Plant response rating, Russian Thistle",[3]; [23],0
same,Russian Thistle plant response rating,[3]; 8 g ai/ha,0
same,Russian Thistle plant response rating,[3]; 16 g ai/ha,0
same,Pigweed plant response rating,[4]; [24],0
same,Pigweed plant response rating,[4]; [25],0
same,"Plant response rating, Pigweed",[4]; [16],0
same,"Plant response rating, Pigweed",[4]; [17],0
same,"Plant response rating, Pigweed",[4]; [19],0
same,"Plant response rating, Pigweed",[4]; [20],0
same,Pigweed plant response rating,[4]; [26],0
same,Pigweed plant response rating,[4]; [27],0
same,Kochia plant response rating,[5]; 8 g ai/ha,0
same,Kochia plant response rating,[5]; 16 g ai/ha,0
same,"Plant response rating, Kochia","[5]; 31 g ai/ha, scale 0 to 100",0
same,"Plant response rating, Kochia",[5]; [21],0
same,Goosegrass plant response rating,[6]; [24],65
same,Goosegrass plant response rating,[6]; [25],70
same,"Plant response rating, Goosegrass",[6]; [16],85
same,"Plant response rating, Goosegrass",[6]; [17],90
same,"Plant response rating, Goosegrass",[6]; [19],0
same,"Plant response rating, Goosegrass",[6]; [20],60
same,Goosegrass plant response rating,[6]; [26],0
same,Goosegrass plant response rating,[6]; [27],0
same,"Plant response rating, Galium",[7]; [22],0
same,"Plant response rating, Galium",[7]; [23],0
same,Galium plant response rating,[7]; 8 g ai/ha,0
same,Galium plant response rating,[7]; 16 g ai/ha,0
same,"Plant response rating, Sunflower",[8]; [22],0
same,"Plant response rating, Sunflower",[8]; [23],0
same,Sunflower plant response rating,[8]; 8 g ai/ha,0
same,Sunflower plant response rating,[8]; 16 g ai/ha,0
same,"Ryegrass, Italian plant response rating",[9]; [24],100
same,"Ryegrass, Italian plant response rating",[9]; [25],100
same,"Plant response rating, Ryegrass, Italian",[9]; [16],100
same,"Plant response rating, Ryegrass, Italian",[9]; [17],100
same,"Plant response rating, Ryegrass, Italian",[9]; [19],100
same,"Plant response rating, Ryegrass, Italian",[9]; [20],100
same,"Ryegrass, Italian plant response rating",[9]; [26],100
same,"Ryegrass, Italian plant response rating",[9]; [27],100
same,"Cupgrass, Woolly plant response rating",[10]; [24],90
same,"Plant response rating, Cupgrass, Woolly",[10]; [15],100
same,"Plant response rating, Cupgrass, Woolly",[10]; [16],100
same,"Plant response rating, Cupgrass, Woolly",[10]; [17],100
same,"Plant response rating, Cupgrass, Woolly",[10]; [19],0
same,"Plant response rating, Cupgrass, Woolly",[10]; [20],0
same,"Cupgrass, Woolly plant response rating",[10]; [26],0
same,"Cupgrass, Woolly plant response rating",[10]; [27],0
same,"Crabgrass, Large plant response rating",[11]; [24],70
same,"Plant response rating, Crabgrass, Large",[11]; [15],98
same,"Plant response rating, Crabgrass, Large",[11]; [16],100
same,"Plant response rating, Crabgrass, Large",[11]; [17],100
same,"Plant response rating, Crabgrass, Large",[11]; [19],0
same,"Plant response rating, Crabgrass, Large",[11]; [20],0
same,"Crabgrass, Large plant response rating",[11]; [26],0
same,"Crabgrass, Large plant response rating",[11]; [27],0
same,Ragweed plant response rating,[12]; [24],0
same,Ragweed plant response rating,[12]; [25],0
same,"Plant response rating, Ragweed",[12]; [16],0
same,"Plant response rating, Ragweed",[12]; [17],0
same,"Plant response rating, Ragweed",[12]; [20],0
same,Surinam Grass plant response rating,[13]; [24],70
same,Surinam Grass plant response rating,[13]; [25],85
same,"Plant response rating, Surinam Grass",[13]; [16],100
same,"Plant response rating, Surinam Grass",[13]; [17],100
same,"Plant response rating, Surinam Grass",[13]; [19],0
same,"Plant response rating, Surinam Grass",[13]; [20],55
same,Surinam Grass plant response rating,[13]; [26],0
same,Surinam Grass plant response rating,[13]; [27],0
same,Cocklebur plant response rating,"[14]; postemergence, 0-100 scale",0
same,"Plant response rating, Cocklebur",[14]; [15],0
same,"Plant response rating, Cocklebur",[14]; [16],0
same,"Plant response rating, Cocklebur",[14]; [17],0
same,"Plant response rating, Cocklebur",[14]; [18],0
same,"Plant response rating, Cocklebur",[14]; [19],0
same,"Plant response rating, Cocklebur",[14]; [20],0
same,Cocklebur plant response rating,"[14]; Preemergence, scale 0 to 100",0
Cc1cc(-c2ccc(Cl)cc2)nn1-c1c(OC(=S)N(C)C)cnn(C)c1=O [Compound 69],"Bromegrass, Downy plant response rating","[1]; postemergence, 0-100 scale",0
same,"Plant response rating, Bromegrass, Downy",[1]; [15],0
same,"Plant response rating, Bromegrass, Downy",[1]; [16],15
same,"Plant response rating, Bromegrass, Downy",[1]; [17],45
same,"Plant response rating, Bromegrass, Downy",[1]; [18],0
same,"Plant response rating, Bromegrass, Downy",[1]; [19],0
same,"Plant response rating, Bromegrass, Downy",[1]; [20],0
same,"Bromegrass, Downy plant response rating","[1]; Preemergence, scale 0 to 100",0
same,Soybean plant response rating,[2]; 8 g ai/ha,0
same,Soybean plant response rating,[2]; 16 g ai/ha,0
same,"Plant response rating, Soybean","[2]; 31 g ai/ha, scale 0 to 100",0
same,"Plant response rating, Soybean",[2]; [21],20
same,"Plant response rating, Russian Thistle",[3]; [22],0
same,"Plant response rating, Russian Thistle",[3]; [23],0
same,Russian Thistle plant response rating,[3]; 8 g ai/ha,0
same,Russian Thistle plant response rating,[3]; 16 g ai/ha,0
same,Pigweed plant response rating,[4]; [24],0
same,Pigweed plant response rating,[4]; [25],0
same,"Plant response rating, Pigweed",[4]; [16],0
same,"Plant response rating, Pigweed",[4]; [17],0
same,"Plant response rating, Pigweed",[4]; [19],0
same,"Plant response rating, Pigweed",[4]; [20],0
same,Pigweed plant response rating,[4]; [26],0
same,Pigweed plant response rating,[4]; [27],0
same,Kochia plant response rating,[5]; 8 g ai/ha,0
same,Kochia plant response rating,[5]; 16 g ai/ha,0
same,"Plant response rating, Kochia","[5]; 31 g ai/ha, scale 0 to 100",95
same,"Plant response rating, Kochia",[5]; [21],98
same,Goosegrass plant response rating,[6]; [24],60
same,Goosegrass plant response rating,[6]; [25],70
same,"Plant response rating, Goosegrass",[6]; [16],75
same,"Plant response rating, Goosegrass",[6]; [17],90
same,"Plant response rating, Goosegrass",[6]; [19],0
same,"Plant response rating, Goosegrass",[6]; [20],0
same,Goosegrass plant response rating,[6]; [26],0
same,Goosegrass plant response rating,[6]; [27],0
same,"Plant response rating, Galium",[7]; [22],0
same,"Plant response rating, Galium",[7]; [23],0
same,Galium plant response rating,[7]; 8 g ai/ha,0
same,Galium plant response rating,[7]; 16 g ai/ha,0
same,"Plant response rating, Sunflower",[8]; [22],0
same,"Plant response rating, Sunflower",[8]; [23],0
same,Sunflower plant response rating,[8]; 8 g ai/ha,0
same,Sunflower plant response rating,[8]; 16 g ai/ha,0
same,"Ryegrass, Italian plant response rating",[9]; [24],10
same,"Ryegrass, Italian plant response rating",[9]; [25],55
same,"Plant response rating, Ryegrass, Italian",[9]; [16],98
same,"Plant response rating, Ryegrass, Italian",[9]; [17],100
same,"Plant response rating, Ryegrass, Italian",[9]; [19],60
same,"Plant response rating, Ryegrass, Italian",[9]; [20],100
same,"Ryegrass, Italian plant response rating",[9]; [26],0
same,"Ryegrass, Italian plant response rating",[9]; [27],20
same,"Cupgrass, Woolly plant response rating",[10]; [24],20
same,"Plant response rating, Cupgrass, Woolly",[10]; [15],90
same,"Plant response rating, Cupgrass, Woolly",[10]; [16],95
same,"Plant response rating, Cupgrass, Woolly",[10]; [17],100
same,"Plant response rating, Cupgrass, Woolly",[10]; [19],0
same,"Plant response rating, Cupgrass, Woolly",[10]; [20],85
same,"Cupgrass, Woolly plant response rating",[10]; [26],0
same,"Cupgrass, Woolly plant response rating",[10]; [27],0
same,"Crabgrass, Large plant response rating",[11]; [24],55
same,"Plant response rating, Crabgrass, Large",[11]; [15],75
same,"Plant response rating, Crabgrass, Large",[11]; [16],98
same,"Plant response rating, Crabgrass, Large",[11]; [17],100
same,"Plant response rating, Crabgrass, Large",[11]; [19],0
same,"Plant response rating, Crabgrass, Large",[11]; [20],0
same,"Crabgrass, Large plant response rating",[11]; [26],0
same,"Crabgrass, Large plant response rating",[11]; [27],0
same,Ragweed plant response rating,[12]; [24],0
same,Ragweed plant response rating,[12]; [25],0
same,"Plant response rating, Ragweed",[12]; [16],0
same,"Plant response rating, Ragweed",[12]; [17],0
same,"Plant response rating, Ragweed",[12]; [19],100
same,"Plant response rating, Ragweed",[12]; [20],100
same,Ragweed plant response rating,[12]; [26],0
same,Ragweed plant response rating,[12]; [27],98
same,Surinam Grass plant response rating,[13]; [24],65
same,Surinam Grass plant response rating,[13]; [25],75
same,"Plant response rating, Surinam Grass",[13]; [16],80
same,"Plant response rating, Surinam Grass",[13]; [17],95
same,"Plant response rating, Surinam Grass",[13]; [19],15
same,"Plant response rating, Surinam Grass",[13]; [20],35
same,Surinam Grass plant response rating,[13]; [26],0
same,Surinam Grass plant response rating,[13]; [27],0
same,Cocklebur plant response rating,"[14]; postemergence, 0-100 scale",0
same,"Plant response rating, Cocklebur",[14]; [15],0
same,"Plant response rating, Cocklebur",[14]; [16],0
same,"Plant response rating, Cocklebur",[14]; [17],0
same,"Plant response rating, Cocklebur",[14]; [18],0
same,"Plant response rating, Cocklebur",[14]; [19],0
same,"Plant response rating, Cocklebur",[14]; [20],0
same,Cocklebur plant response rating,"[14]; Preemergence, scale 0 to 100",0
